# The source made the active and inactive calls. The calls are words filed in the database; no cut-off is given here.
# How the values were obtained:
# [1] = Activation of soluble guanylyl cyclase in Wistar rat aortic strips assessed as dilation of L-phenylephrine-induced contraction administered 5 mins before contraction in presence of ODQ by isometric transducer analysis
# [2] = Drug metabolism in human HaCaT cells assessed as induction of NO release at 10 uM after 1 hr by DAF-2D-based FACS analysis; type: ADME, cell-based
# [3] = biological target: Histone deacetylase (Homo sapiens) (UniProt Q13547+O15379+Q9UBN7+Q92769+Q9UQL6+Q8WUI4+Q9BY41+Q96DB2+P56524+Q9UKV0+Q969S8); experiment: Inhibition of HDAC in human HaCaT cells at 10 uM using acetylated lysine side chain as substrate incubated for 1 hr by colorimetric detection based assay relative to control; type: cell-based
# [4] = (§1) Activation of soluble guanylyl cyclase in Wistar rat aortic strips assessed as dilation of L-phenylephrine-induced contraction administered 5 mins before contraction by isometric transducer analysis
# [5] = tested on: Rattus norvegicus; experiment: as §1
# [6] = tested on: C2C12; experiment: Cytotoxicity against mouse C2C12 cells assessed as increase in dead cells 0.5 to 10 uM after 72 hrs by Trypan Blue-based assay; type: cell-based; conditions: c2c12, 72 h
# [7] = tested on: HaCaT; experiment: Cytotoxicity against human HaCaT cells assessed as increase in dead cells 0.1 to 100 uM after 72 hrs by Trypan Blue-based assay; type: cell-based
# [8] = biological target: T1, Histone deacetylase 2 (Homo sapiens, UniProt Q92769); experiment: Induction of HDAC2 S-nitrosylation in human HaCaT cells after 1 hr by immunoprecipitation and Western blot analysis; type: cell-based
# [9] = biological target: Histone deacetylase 4 (Homo sapiens) (UniProt P56524); experiment: Induction of HDAC4 nuclear translocation in human HaCaT cells at 10 uM after 1 hr by immunofluorescence analysis; type: cell-based
# [10] = biological target: Histone deacetylase 5 (Homo sapiens) (UniProt Q9UQL6); experiment: Induction of HDAC5 nuclear translocation in human HaCaT cells at 10 uM after 1 hr by immunofluorescence analysis; type: cell-based
# [11] = biological target: T1, Histone deacetylase 2; experiment: Inhibition of FLAG-tagged HDAC2 (unknown origin) expressed in HEK293T cells using acetylated lysine side chain as substrate after 1 hr by colorimetric detection based assay; type: cell-based
# [12] = tested on: C2C12; experiment: Induction of skeletal muscle differentiation in mouse C2C12 cells assessed as myotube formation by measuring MHC expression at 0.5 uM after 5 days by DAPI-staining based microscopy; type: functional, cell-based
# [13] = Drug metabolism in human HaCaT cells assessed as induction of NO release at 10 uM by DAF-2D-based FACS analysis; type: ADME, cell-based; conditions: TDE = time-dependent effect
# [14] = biological target: Histone deacetylase 3 (Homo sapiens, UniProt O15379); experiment: Inhibition of human FLAG-tagged HDAC3 expressed in HEK293T cells using acetylated lysine side chain as substrate after 1 hr by colorimetric detection based assay; type: cell-based
# [15] = biological target: Histone deacetylase 1 (Homo sapiens, UniProt Q13547); experiment: Inhibition of human FLAG-tagged HDAC1 expressed in HEK293T cells using acetylated lysine side chain as substrate after 1 hr by colorimetric detection based assay
# [16] = tested on: C2C12; experiment: Induction of skeletal muscle differentiation in mouse C2C12 cells assessed as increase in myoblast fusion by measuring MyoM expression at 0.5 uM after 5 days by qRT-PCR analysis; type: functional, cell-based
# [17] = tested on: C2C12; experiment: Induction of skeletal muscle differentiation in mouse C2C12 cells assessed as induction of multinucleated fibers at 0.5 uM after 5 days by DAPI-staining based microscopy; type: functional, cell-based
# [18] = Drug metabolism in human HaCaT cells assessed as induction of NO release at 50 to 100 uM after 1 hr by DAF-2D-based FACS analysis; type: ADME, cell-based
# T1 sequence (Q92769 whole entry): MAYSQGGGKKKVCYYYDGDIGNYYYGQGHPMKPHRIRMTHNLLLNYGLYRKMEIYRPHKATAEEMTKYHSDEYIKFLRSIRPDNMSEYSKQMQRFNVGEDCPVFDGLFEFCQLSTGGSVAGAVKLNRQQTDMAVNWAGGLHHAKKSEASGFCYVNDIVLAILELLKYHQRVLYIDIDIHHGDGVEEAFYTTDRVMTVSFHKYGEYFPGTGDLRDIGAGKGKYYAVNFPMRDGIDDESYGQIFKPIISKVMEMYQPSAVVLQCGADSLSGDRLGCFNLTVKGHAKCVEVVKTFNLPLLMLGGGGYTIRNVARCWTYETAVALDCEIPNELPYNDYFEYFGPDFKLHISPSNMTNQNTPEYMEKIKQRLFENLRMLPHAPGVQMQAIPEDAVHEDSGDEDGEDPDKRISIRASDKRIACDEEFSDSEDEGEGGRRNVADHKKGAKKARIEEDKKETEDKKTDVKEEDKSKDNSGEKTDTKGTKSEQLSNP
# Histone deacetylase 5 (Homo sapiens), sequence (Q9UQL6 whole entry): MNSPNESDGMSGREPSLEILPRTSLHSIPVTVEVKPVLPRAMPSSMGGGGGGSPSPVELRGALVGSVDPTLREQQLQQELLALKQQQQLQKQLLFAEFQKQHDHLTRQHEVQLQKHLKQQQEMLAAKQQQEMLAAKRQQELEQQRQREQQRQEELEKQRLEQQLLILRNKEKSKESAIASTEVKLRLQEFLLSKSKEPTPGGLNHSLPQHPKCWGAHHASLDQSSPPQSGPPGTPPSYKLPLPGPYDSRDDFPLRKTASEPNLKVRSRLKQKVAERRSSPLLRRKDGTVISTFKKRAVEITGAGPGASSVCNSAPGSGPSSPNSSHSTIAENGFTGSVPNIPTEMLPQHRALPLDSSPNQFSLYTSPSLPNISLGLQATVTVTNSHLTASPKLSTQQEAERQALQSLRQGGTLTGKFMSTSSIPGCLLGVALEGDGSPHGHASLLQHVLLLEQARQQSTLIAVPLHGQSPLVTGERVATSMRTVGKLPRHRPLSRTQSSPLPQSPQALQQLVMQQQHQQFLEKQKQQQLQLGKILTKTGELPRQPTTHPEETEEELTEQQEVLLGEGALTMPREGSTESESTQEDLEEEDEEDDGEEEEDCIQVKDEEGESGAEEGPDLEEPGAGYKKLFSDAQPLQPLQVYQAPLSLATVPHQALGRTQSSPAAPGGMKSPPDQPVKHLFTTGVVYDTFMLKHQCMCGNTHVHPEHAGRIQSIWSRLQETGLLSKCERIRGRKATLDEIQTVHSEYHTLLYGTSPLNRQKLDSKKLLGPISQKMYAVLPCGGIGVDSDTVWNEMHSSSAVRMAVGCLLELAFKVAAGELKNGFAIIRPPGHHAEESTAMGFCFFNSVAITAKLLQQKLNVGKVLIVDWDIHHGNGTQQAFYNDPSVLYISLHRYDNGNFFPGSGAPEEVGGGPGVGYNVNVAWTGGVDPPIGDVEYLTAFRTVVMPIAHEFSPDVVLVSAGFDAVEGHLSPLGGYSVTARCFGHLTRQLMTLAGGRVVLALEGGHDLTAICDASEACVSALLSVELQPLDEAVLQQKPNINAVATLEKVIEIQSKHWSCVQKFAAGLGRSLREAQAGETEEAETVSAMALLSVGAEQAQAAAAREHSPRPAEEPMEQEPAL
# Histone deacetylase 1, sequence (Q13547 whole entry, the tested form may be a part): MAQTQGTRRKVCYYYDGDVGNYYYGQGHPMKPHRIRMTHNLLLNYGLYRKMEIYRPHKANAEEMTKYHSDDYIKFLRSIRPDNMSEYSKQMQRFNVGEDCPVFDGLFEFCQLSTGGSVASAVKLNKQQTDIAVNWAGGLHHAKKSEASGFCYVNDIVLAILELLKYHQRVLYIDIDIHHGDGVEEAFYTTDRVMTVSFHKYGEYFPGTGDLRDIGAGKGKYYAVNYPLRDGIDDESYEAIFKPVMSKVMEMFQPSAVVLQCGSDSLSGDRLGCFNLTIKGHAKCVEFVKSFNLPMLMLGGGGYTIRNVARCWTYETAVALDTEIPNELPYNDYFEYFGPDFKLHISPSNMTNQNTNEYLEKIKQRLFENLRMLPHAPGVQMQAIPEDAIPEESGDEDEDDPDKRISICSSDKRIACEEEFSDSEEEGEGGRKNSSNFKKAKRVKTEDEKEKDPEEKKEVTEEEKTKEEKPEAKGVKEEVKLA
# Histone deacetylase 4 (Homo sapiens), sequence (P56524 whole entry): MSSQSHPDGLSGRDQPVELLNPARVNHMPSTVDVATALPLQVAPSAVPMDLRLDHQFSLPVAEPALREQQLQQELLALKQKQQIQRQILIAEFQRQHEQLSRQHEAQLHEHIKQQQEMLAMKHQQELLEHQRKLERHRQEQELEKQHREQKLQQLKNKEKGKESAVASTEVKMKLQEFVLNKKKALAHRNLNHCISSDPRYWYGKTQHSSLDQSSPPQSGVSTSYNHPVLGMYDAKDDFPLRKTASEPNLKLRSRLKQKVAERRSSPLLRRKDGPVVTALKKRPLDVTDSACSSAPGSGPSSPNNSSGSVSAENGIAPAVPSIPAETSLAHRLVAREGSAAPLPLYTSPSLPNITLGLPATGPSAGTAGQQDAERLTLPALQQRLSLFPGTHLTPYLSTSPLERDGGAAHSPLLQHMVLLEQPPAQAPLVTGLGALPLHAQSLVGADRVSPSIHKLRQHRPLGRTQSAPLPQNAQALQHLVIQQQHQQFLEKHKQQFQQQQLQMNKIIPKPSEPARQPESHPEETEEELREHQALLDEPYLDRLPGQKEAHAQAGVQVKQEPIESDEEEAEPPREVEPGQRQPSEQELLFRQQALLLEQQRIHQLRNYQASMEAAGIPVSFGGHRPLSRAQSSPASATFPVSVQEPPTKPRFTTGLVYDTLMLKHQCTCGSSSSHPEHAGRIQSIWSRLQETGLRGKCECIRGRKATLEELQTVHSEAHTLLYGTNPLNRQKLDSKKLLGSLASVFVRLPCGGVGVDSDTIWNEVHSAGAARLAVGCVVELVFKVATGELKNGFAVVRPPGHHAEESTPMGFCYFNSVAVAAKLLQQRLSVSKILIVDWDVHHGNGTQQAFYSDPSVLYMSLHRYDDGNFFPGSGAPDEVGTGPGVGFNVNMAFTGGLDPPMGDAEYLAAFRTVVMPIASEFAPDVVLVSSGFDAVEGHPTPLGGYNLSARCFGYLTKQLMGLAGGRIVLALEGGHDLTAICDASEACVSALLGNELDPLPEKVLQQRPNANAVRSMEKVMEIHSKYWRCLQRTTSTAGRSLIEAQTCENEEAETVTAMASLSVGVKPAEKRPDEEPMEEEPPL
# Histone deacetylase 3, sequence (O15379 whole entry): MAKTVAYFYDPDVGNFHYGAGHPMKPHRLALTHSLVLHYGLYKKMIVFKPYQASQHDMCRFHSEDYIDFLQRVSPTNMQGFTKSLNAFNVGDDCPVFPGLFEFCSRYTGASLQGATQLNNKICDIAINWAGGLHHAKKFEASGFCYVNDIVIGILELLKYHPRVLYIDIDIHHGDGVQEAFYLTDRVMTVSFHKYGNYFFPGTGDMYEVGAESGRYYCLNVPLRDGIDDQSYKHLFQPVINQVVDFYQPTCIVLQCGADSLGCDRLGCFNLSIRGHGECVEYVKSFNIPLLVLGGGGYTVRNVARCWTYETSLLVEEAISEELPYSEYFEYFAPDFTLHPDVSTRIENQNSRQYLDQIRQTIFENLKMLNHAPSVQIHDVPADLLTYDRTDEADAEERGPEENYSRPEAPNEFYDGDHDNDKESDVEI
Compound,EC50 [1] [nM],Drug metabolism [2],inhibition [3] [%],EC50 [4] [nM],Activity [5],Activity [6],Activity [7],Activity [8],Activity [9],Activity [10],IC50 [11] [nM],Activity [12],Drug metabolism [13],IC50 [14] [nM],IC50 [15] [nM],Activity [16],Activity [17],Drug metabolism [18]
CN(CCCO[N+](=O)[O-])Cc1ccc(COC(=O)NCc2ccc(C(=O)Nc3ccccc3N)cc2)cn1.Cl.Cl.Cl,44000,Metabolite_Notdetected,20 to 50,2600,Dose-dependent effect,,,,,,,,,,,,,
Nc1ccccc1NC(=O)c1ccc(CNC(=O)OCc2cccnc2)cc1 [ENTINOSTAT],,,,,,Toxic,Toxic,,,,,,,,,,,
Nc1ccccc1NC(=O)c1ccc(CNC(=O)OCc2ccc(OCCOc3no[n+]([O-])c3-c3ccccc3)nc2)cc1,> 100000,Metabolite_Detected,20 to 50,3400,Dose-dependent effect,,,,,,,,,,,,,
Nc1ccccc1NC(=O)c1ccc(CNC(=O)OCc2ccc(OCCOc3no[n+]([O-])c3S(=O)(=O)c3ccccc3)nc2)cc1,350,,20 to 50,31,Dose-dependent effect,Non-Toxic,Non-Toxic,Active,Active,Active,370,Active,Tde,1190,1020,,,
COCCOc1no[n+]([O-])c1S(=O)(=O)c1ccccc1,430,,,4.5,Dose-dependent effect,,,,,,,,,,,,,
CN(CCCCC(CO[N+](=O)[O-])O[N+](=O)[O-])Cc1ccc(COC(=O)NCc2ccc(C(=O)Nc3ccccc3N)cc2)cn1.Cl.Cl.Cl (centres undefined),11000,Metabolite_Detected,20 to 50,290,Dose-dependent effect,Non-Toxic,Non-Toxic,Active,Active,Active,390,Active,,1220,1040,Active,Active,
CN(Cc1ccc(COC(=O)NCc2ccc(C(=O)Nc3ccccc3N)cc2)cn1)Cc1no[n+]([O-])c1C#N,960,,20 to 50,24,Dose-dependent effect,,,Active,,,,,,,,,,
CN(C)CCCCC(CO[N+](=O)[O-])O[N+](=O)[O-] (centres undefined),> 100000,,,800,Dose-dependent effect,,,,,,,,,,,,,
CN(Cc1ccc(COC(=O)NCc2ccc(C(=O)Nc3ccccc3N)cc2)cn1)Cc1no[n+]([O-])c1C(N)=O.Cl.Cl.Cl,63000,Metabolite_Notdetected,20 to 50,3400,Dose-dependent effect,,,,,,,,,,,,,Metabolite_Notdetected
